Assay results as given in US20070142367A1, “METHOD AND MEDICINE FOR TREATING GASTROINTESTINAL DISORDER INCLUDING FECAL INCONTINENCE” (priority 2003, published 2007).

Key:
[1] = system: human patient; assay: Side effects noted in patients under daily oral treatment (case examples); conditions: Example 3: 75 mg imipramine pamoate daily without stool softener
Source text: (§1) The patient takes TYLOX, oxycontin, neurotin, aspirin, and anti-coagulants.

[2] = system: human having a gastrointestinal disorder that includes fecal incontinence; assay: Treatment of ambulatory patients having fecal incontinence with daily oral medicine (case examples); assay type: in vivo; conditions: Example 3: person, sprain lumbar spine, 75 mg imipramine pamoate daily without stool softener, after several days
Source text: as §1

With `CN(C)CCCN1c2ccccc2CCc2ccccc21.CN(C)CCCN1c2ccccc2CCc2ccccc21.O=C(O)c1cc2ccccc2c(Cc2c(O)c(C(=O)O)cc3ccccc23)c1O` [imipramine pamoate, 5-[3-(dimethylamino)propyl]-10,11-dihydro-5H-dibenzazepine 4,4-methlyenebis-(3-hydroxy-2-napthoate)] the side effects [1] was “develops constipation” and the “bladder and bowel functions as noted by patient” value [2] was “full control of bladder and bowel functions”.
